The values that follow come from PubChem BioAssay (NCI).

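1) Cells in 96-well plates. 2) Compound, 48 h, 5 concentrations. 3) Linear interpolation between surrounding doses. 4) Unreached endpoint = highest concentration. The concentration for full growth arrest is given as TGI.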 Where only a bound is given, the exact number is not on record here.

Among the test systems are DU-145 prostate; HCC-2998 colon; HS 578T breast; K-562 leukemia; LOX IMVI melanoma; M14 melanoma; MDA-MB-231 breast; MDA-MB-435; MOLT-4 leukemia; NCI-H226 lung; NCI-H23 lung; OVCAR-5 ovarian; SF-295 CNS; SK-MEL-2 melanoma; SK-MEL-5 melanoma; SK-OV-3 ovarian; T-47D breast; TK-10 renal; U251 CNS; UO-31 renal.
What all share (test): NCI anticancer screen, dose series, 48 h

Take `COP(C)(=O)/C(Cc1ccccc1)=N\O` (stereo not given): the TGI with DU-145 prostate, in the assay on HCC-2998 colon, with HS 578T breast, with K-562 leukemia, with LOX IMVI melanoma and with M14 melanoma was above 100 µM each time. The TGI in the assay on MDA-MB-231 breast, with MDA-MB-435, in the assay with MOLT-4 leukemia, in the assay with NCI-H226 lung, in the assay on NCI-H23 lung and in the assay with OVCAR-5 ovarian was above 100 µM throughout. The TGI in the assay with SF-295 CNS, in the assay on SK-MEL-2 melanoma, with SK-MEL-5 melanoma, with SK-OV-3 ovarian, with T-47D breast and in the assay on TK-10 renal was above 100 µM each time. Also, the TGI in the assay with U251 CNS and in the assay with UO-31 renal was above 100 µM throughout.
For the compound `COc1ccc(Cc2nc3cc(C(F)(F)F)ccc3n2CCCN(C)C)cc1`, the TGI is 40.4 µM in the assay on DU-145 prostate; 13.1 µM with HCC-2998 colon; 43.1 µM with HS 578T breast; 34.4 µM in the assay on K-562 leukemia; 40 µM in the assay with LOX IMVI melanoma; 28.7 µM in the assay on M14 melanoma. Further, the TGI with MDA-MB-231 breast is 64.6 µM; in the assay on MDA-MB-435 it was 29.7 µM; in the assay with MOLT-4 leukemia, 16.3 µM; in the assay on NCI-H226 lung, above 100 µM; with NCI-H23 lung, 41.1 µM; in the assay with OVCAR-5 ovarian, above 100 µM. The TGI in the assay with SF-295 CNS was found to be 37.5 µM; in the assay on SK-MEL-2 melanoma, 36.1 µM; in the assay on SK-MEL-5 melanoma it was 30.1 µM; in the assay on SK-OV-3 ovarian, 41.9 µM; in the assay on T-47D breast it was 32.3 µM; in the assay with TK-10 renal, 50.2 µM. The figures for the TGI in the assay on U251 CNS and in the assay with UO-31 renal were 31.9 µM and 1.04 µM, respectively.
